From ChEMBL document CHEMBL3301361, “Experimental in vitro DMPK and physicochemical data on a set of publicly disclosed compounds”
Values after ≈ are worked out from the molar mass of the structure shown.

What was measured:
physchem [1] = details: octan-1-ol/water
physchem [2] = details: pH 7.4 buffer

| SMILES | logD (physchem [1]; pH 7.4, LogD7.4) | solubility thermodynamic (physchem [2]) [µM] | logD (physchem [1]; pH 7.4) |
| --- | --- | --- | --- |
| Cc1cccc(NS(=O)(=O)c2ccc(-c3ccc(C#N)cc3)cc2)n1 | 2.42 | 17.4 (≈ 6.08 µg/mL) | – |
| O=CN(O)C1(CS(=O)(=O)N2CCN(c3ccc(F)cc3)CC2)CCOCC1 | 0.85 | 1380 (≈ 554 µg/mL) | – |
| CC(Nc1ncnc2ccccc12)c1ccccc1 (stereo unspecified) | 3.4 | 123 (≈ 30.7 µg/mL) | – |
| Clc1ccc(CN(Cc2ccc(Cl)cc2)c2nnn[nH]2)cc1 | 2.74 | 118 (≈ 39.3 µg/mL) | – |
| COc1cc2ncnc(Oc3cnn(CC(=O)Nc4ccc(N(C)C)cn4)c3)c2cc1OC | 2.36 | 6.6 (≈ 2.97 µg/mL) | – |
| Cc1ccn2c(NC(=O)c3ccccc3)c(-c3cccs3)nc2c1 | – | 1.1 (≈ 0.367 µg/mL) | 2.87 |
| CCOc1ccc2nc(N)sc2c1 | 2.4 | 851 (≈ 165 µg/mL) | – |
| O=C(Nc1ccc(Oc2cccnc2)nc1)c1nnc(Nc2ccccc2F)o1 | 3.1 | 77.6 (≈ 30.4 µg/mL) | – |
| CSCCC(NC(=O)c1sccc1Cl)c1nc2ccccc2[nH]1 (stereo unspecified) | 3.69 | 25.7 (≈ 9.4 µg/mL) | – |
| C=CCN(C(=O)NCc1ccc(OC)cc1)C1CCN(CCC(c2ccccc2)c2ccccc2)CC1 | 3.6 | 53.7 (≈ 26.7 µg/mL) | – |
| CCCNCc1cnc(-c2ccc(C(=O)Nc3ccccc3N)cc2)s1 | 1.75 | 676 (≈ 248 µg/mL) | – |
| COc1cc(OC)nc(-n2ncc(Cl)c(Cl)c2=O)n1 | 1.4 | 70.8 (≈ 21.5 µg/mL) | – |
| CC1(C)C(=O)N(c2ccc(SC(F)(F)F)cc2)C(=O)N1Cc1ccnc(N2CCOCC2)c1 | 3.73 | 3 (≈ 1.44 µg/mL) | – |
| Cn1c(C#N)ccc1-c1ccc2c(c1)C(C)(C)OC(=S)N2 [TANAPROGET] | 3.4 | 3.6 (≈ 1.07 µg/mL) | – |
| O=C(CO)N1CCC[C@@H]1COc1cccc2ncnc(Nc3ccc(OCc4ccccn4)c(Cl)c3)c12 | 3.71 | 2.2 (≈ 1.14 µg/mL) | – |
| COc1ccc(Nc2nccc(-c3cnc(C)n3C(C)C)n2)cc1 | 3.43 | 209 (≈ 67.6 µg/mL) | – |
| Oc1ccc(-c2ccc(C3(O)CN4CCC3CC4)cc2)cc1 (stereo unspecified) | – | 436 (≈ 129 µg/mL) | 0.95 |
| CC[C@@H]1COCCN1c1cc(C2(S(C)(=O)=O)CC2)nc(-c2cccc3[nH]ccc23)n1 | 3 | 79.4 (≈ 33.9 µg/mL) | – |
| Cc1ccc(C(=O)Oc2ccc(C(O)CNC(C)(C)C)cc2OC(=O)c2ccc(C)cc2)cc1 (stereo unspecified) [BITOLTEROL] | 3.57 | 81.3 (≈ 37.5 µg/mL) | – |
| COc1cc(Nc2cc(Nc3c(Cl)ccc4c3OCO4)ncn2)cc(OC)c1OC | 3.07 | 2.5 (≈ 1.08 µg/mL) | – |
| COc1cccc(Nc2nnc(C(=O)Nc3ccc(N4CCOCC4)nc3)o2)c1 | 2.8 | 4.6 (≈ 1.82 µg/mL) | – |

| SMILES | logD (physchem [1]; pH 7.4, LogD7.4) | solubility thermodynamic (physchem [2]) [µM] | logD (physchem [1]; pH 7.4) |
| --- | --- | --- | --- |
| CC(=O)N1CCN(c2ccc(Nc3nccc(-c4cnc5ccccn45)n3)cc2)CC1 | 2.82 | 8.5 (≈ 3.51 µg/mL) | – |
| O=C(O)c1c(Sc2ccccc2)c2cc(Cl)ccc2n1Cc1ccc(Cl)cc1 | 2.96 | 132 (≈ 56.5 µg/mL) | – |
| O=C(Nc1cccc(O)c1)c1ccc(OCCCN2CCCC2)cc1OCc1ccccc1 | 3.07 | 6.6 (≈ 2.95 µg/mL) | – |
| CNc1cccc(CCOc2ccc(C[C@H](NC(=O)c3ccccc3Cl)C(=O)O)cc2)n1 | -0.31 | 398 (≈ 181 µg/mL) | – |
| CN(C)CC(O)COc1ccc(Nc2nccc(N(CC#N)c3cc(Cl)ccc3Cl)n2)cc1 (stereo unspecified) | 2.4 | 575 (≈ 280 µg/mL) | – |
| CCN(CCN(C)C)S(=O)(=O)c1ccc(-c2cnc(N)c(C(=O)Nc3cccnc3)n2)cc1 | 2 | 490 (≈ 230 µg/mL) | – |
| Cc1onc(CO)c1C(=O)Nc1nccs1 | 1.53 | 144 (≈ 34.6 µg/mL) | – |
| NC1(c2ccc(-c3nc4ccn5c(=O)[nH]nc5c4cc3-c3ccccc3)cc2)CCC1 [MK-2206] | 2.5 | 4.7 (≈ 1.92 µg/mL) | – |
| Cc1ccc2nc(NCCN)c3ncc(C)n3c2c1 [BMS-345541] | 0.88 | 246 (≈ 62.7 µg/mL) | – |
| C[C@@H](Oc1cccc2ncnc(Nc3ccc(OCc4ccccn4)c(Cl)c3)c12)C(=O)N(C)C | 3.67 | 6.2 (≈ 2.96 µg/mL) | – |
| Nc1cc(-c2ccccc2)ncn1 | 1.91 | 372 (≈ 63.6 µg/mL) | – |
| Oc1ccc(-c2nc3ccccc3s2)cc1 | 4.1 | 7.9 (≈ 1.8 µg/mL) | – |
| O=S(=O)(Cc1c(F)cccc1F)N1CCN(c2ncccc2C(F)(F)F)CC1 | 3.9 | 2 (≈ 0.843 µg/mL) | – |
| COc1cc(Nc2ncnc(Nc3c(Cl)ccc4c3OCO4)n2)cc(OC)c1OC | 3.01 | 6.2 (≈ 2.68 µg/mL) | – |
| COCC(=O)N1CCC(n2cc(-c3cnc(N)c(-c4nc5ccccc5o4)c3)cn2)CC1 | 3.4 | 1.9 (≈ 0.822 µg/mL) | – |
| COc1cc(N2CCN(C(C)=O)CC2)ccc1Nc1ncc(OC)c(-c2cnc3ccccn23)n1 | 3.2 | 1.3 (≈ 0.616 µg/mL) | – |
| CCOC(=O)c1ccc(OCCC2(C#N)CCN(c3ccc(C)nn3)CC2)cc1 | 3.54 | 58.9 (≈ 23.2 µg/mL) | – |
| CS(=O)(=O)C1(c2cc(N3CCOCC3)nc(-c3cccc4[nH]ccc34)n2)CCNCC1 | 0.7 | 234 (≈ 104 µg/mL) | – |
| O=C(c1ccc(F)cc1)C1CCN(C(=O)c2ccc(F)cc2)CC1 | 2.9 | 30.9 (≈ 10.2 µg/mL) | – |
| COc1cc(N2CCN(C(C)=O)CC2)ccc1Nc1ncc(Cl)c(-c2cnc3c(N)cccn23)n1 | 3.4 | 0.9 (≈ 0.444 µg/mL) | – |
| CCn1c(SCC(=O)Nc2c(C#N)cnn2-c2ccccc2)nnc1-c1cccs1 | 2.1 | 14.1 (≈ 6.14 µg/mL) | – |

| SMILES | logD (physchem [1]; pH 7.4, LogD7.4) | solubility thermodynamic (physchem [2]) [µM] | logD (physchem [1]; pH 7.4) |
| --- | --- | --- | --- |
| COc1ccc(-c2csc(NC(=O)c3c(C)noc3C)n2)cc1OC | – | 2 (≈ 0.719 µg/mL) | 3.16 |
| Cc1cnc(NC(=O)Cc2ccccc2)s1 | 2.9 | 17 (≈ 3.95 µg/mL) | – |
| CC(=O)c1ccc2[nH]c(-c3cccnc3)cc(=O)c2c1 | 1.41 | 126 (≈ 33.3 µg/mL) | – |
| O=C(CS(=O)(=O)c1ccccc1)c1ccccc1 | 1.86 | 234 (≈ 61 µg/mL) | – |
| Cn1cnc(-c2ccccc2)c1C#Cc1ccnc(N)n1 | 2.94 | 17 (≈ 4.68 µg/mL) | – |
| Cc1cccc(-c2nn3c(c2-c2ccnc4ccc(C(N)=O)cc24)CCC3)n1 [GALUNISERTIB] | 1.71 | 182 (≈ 67.2 µg/mL) | – |
| Cc1ncc(-c2ccnc(Nc3ccc(S(N)(=O)=O)cc3)n2)n1C | 1.6 | 36.3 (≈ 12.5 µg/mL) | – |
| Cc1nc2nc(-c3cccnc3)nn2c(O)c1Cc1ccccc1 | 1.52 | 29.5 (≈ 9.36 µg/mL) | – |
| CNc1cccc(CCCc2ccc(C[C@H](NC(=O)c3c(Cl)cccc3Cl)C(=O)O)cc2)n1 | 0.57 | 1510 (≈ 736 µg/mL) | – |
| CNC(=O)Nc1cc(-c2ccccc2)sc1C(N)=O | 2.71 | 1.1 (≈ 0.303 µg/mL) | – |
| O=C(Nc1nnc(C(=O)Nc2ccc(N3CCOCC3)cc2)o1)c1ccccc1 | 1.02 | 105 (≈ 41.2 µg/mL) | – |
| Cc1c[nH]c(/C=C2\C(=O)Nc3ccccc32)c1CCC(=O)O | 1.2 | 447 (≈ 132 µg/mL) | – |
| Nc1ccc2cccc(Nc3ncccn3)c2n1 | 2.7 | 26.9 (≈ 6.38 µg/mL) | – |
| O=C(NC1CCCS(=O)(=O)C1)c1ccc(Oc2ccc(C#C[C@]3(O)CN4CCC3CC4)cc2)cc1 (stereo partly specified) | – | 162 (≈ 80.2 µg/mL) | 1.4 |
| COCCN(c1ccnc(Nc2cc(N3CCOCC3)cc(N3CCOCC3)c2)n1)c1cc(CO)ccc1C | 2.8 | 302 (≈ 161 µg/mL) | – |
| COc1cc2c(Nc3cc(CC(=O)Nc4cccc(F)c4F)[nH]n3)ncnc2cc1OCCCN1CCC[C@@H]1CO | 1.96 | 813 (≈ 461 µg/mL) | – |
| Cc1cnc(Nc2ccc(OCC(O)CN(C)C)cc2)nc1Nc1ccccc1 (stereo unspecified) | 2 | 724 (≈ 285 µg/mL) | – |
| FC(F)(F)c1nnc2ccc(N3CCCCCC3)nn12 | 3.29 | 132 (≈ 37.6 µg/mL) | – |
| CCn1cc(NC(=O)Cc2ccc(Oc3ccnc4cc(F)ccc34)cc2OC)cn1 | 3.93 | 2 (≈ 0.841 µg/mL) | – |
| Cc1nn(C2CCN(C)CC2)cc1-c1cnc(N)c(-c2nc3ccccc3o2)c1 | 3.4 | 21.4 (≈ 8.31 µg/mL) | – |
| Clc1cc(Nc2ncnc3[nH]nc(OCCN4CCOCC4)c23)ccc1OCc1ccccn1 | – | 2 (≈ 0.964 µg/mL) | – |

| SMILES | logD (physchem [1]; pH 7.4, LogD7.4) | solubility thermodynamic (physchem [2]) [µM] | logD (physchem [1]; pH 7.4) |
| --- | --- | --- | --- |
| CCc1cc(OCc2ccc(-c3ccccc3-c3nnn[nH]3)cc2)c2ccccc2n1 | – | 7.8 (≈ 3.18 µg/mL) | – |
| CN(C)CCCN(C)c1nc2cc(Cl)c(Cl)cc2nc1/C=C/c1ccccc1 | – | 5.8 (≈ 2.41 µg/mL) | – |
| C[C@H]1CN(c2ncc(OCc3ccc(S(C)(=O)=O)cc3)cn2)CCN1C(=O)OC(C)(C)C | – | 2.2 (≈ 1.02 µg/mL) | – |
| CC[C@@H](C)NC(=O)c1ccc(Oc2ccc(C#C[C@]3(O)CN4CCC3CC4)cc2)cc1 | – | 112 (≈ 47 µg/mL) | – |
| CC(=O)Nc1nc2c(s1)C(=O)NCCC2 | – | 1350 (≈ 304 µg/mL) | – |
| O=C(O)c1cc2c(Cl)cccc2n1Cc1ccc(Cl)c(Cl)c1 | – | 66.1 (≈ 23.4 µg/mL) | – |
| CC(C)n1c2ccccc2c2c(F)c(NC(=O)N3CCOCC3)c(F)cc21 | – | 4.6 (≈ 1.72 µg/mL) | – |
| CC(C)(C)Cn1c2ccccc2c2cc(NC(=O)N3CCOCC3)ccc21 | – | 0.1 (≈ 0.0365 µg/mL) | – |
| c1ccc(-c2cnn3cc(-c4ccncc4)cnc23)cc1 | – | 0.9 (≈ 0.245 µg/mL) | – |
| Cn1cc(C(=O)CCCCOc2ccc(C(=O)O)cc2)cc1C=O | – | 1200 (≈ 396 µg/mL) | – |
| OC1CCN(CCOc2n[nH]c3ncnc(Nc4ccc(OCc5ccccn5)c(Cl)c4)c23)CC1 | – | 13.8 (≈ 6.84 µg/mL) | – |
| Cc1cc(Nc2ncnc3[nH]nc(OCCN4CCC(O)CC4)c23)ccc1OCc1cccc(F)c1 | – | 6.8 (≈ 3.35 µg/mL) | – |
| Cc1cc(C)cc(-c2[nH]c3sc(C(C)(C)C(=O)N4C5CCC4CC5)cc3c2C(=O)CN2CCN(CC(=O)N3CCCC3)CC2)c1 | – | 70.8 (≈ 44.6 µg/mL) | – |
| N#Cc1ccc(CN2CCN(c3ccc4nnc(C(F)(F)F)n4n3)CC2)cc1 | – | 11.5 (≈ 4.45 µg/mL) | – |
| NS(=O)(=O)c1ccc(Nc2nccc(-c3cnc4ccccn34)n2)cc1 | – | 6.5 (≈ 2.38 µg/mL) | – |
| C[C@H](Oc1cccc2ncnc(Nc3ccc(OCc4ccccn4)c(Cl)c3)c12)C(=O)N(C)C | – | 2.9 (≈ 1.39 µg/mL) | – |
| CC1(C)CNc2cc(NC(=O)c3cccnc3NCc3ccncc3)ccc21 [MOTESANIB] | – | 44.7 (≈ 16.7 µg/mL) | – |
| Cc1ccc(-c2cn3cccnc3n2)cc1 | – | 251 (≈ 52.6 µg/mL) | – |
| CN(C)CCNS(=O)(=O)c1ccc(Nc2nccc(-c3cnc4ccccn34)n2)cc1 | – | 30.9 (≈ 13.5 µg/mL) | – |
| CNC(=O)[C@@H](C)Oc1cccc2ncnc(Nc3ccc4c(cnn4Cc4nccs4)c3)c12 | – | 1.3 (≈ 0.597 µg/mL) | – |
| CCN(CCO)CCCOc1cc2ncnc(Nc3ncc(CC(=O)Nc4cccc(F)c4)s3)c2cc1OC | – | 0.6 (≈ 0.333 µg/mL) | – |
